This passage reports IC50 and melting point results from US8722663B2, “Di-substituted pyridine derivatives as anticancers” (Otsuka Pharmaceutical Co., Ltd., priority 2010, dated 2014).

Molecules are shown by their SMILES. Where a name gives a salt, the structure may show the parent alone. Bounds are passed on as bounds.

Data set [1] deals with human breast cancer cell line (MDA-MB-468). The data set can be described thus: Growth inhibition of MDA-MB-468 cells, sulforhodamine B method. The format is cell-based. As to conditions: 120 h, 5 days with test compound. How it is done:
Growth inhibition of a human breast cancer cell line (MDA-MB-468) was determined by the sulforhodamine B method based on the method of Skehan P. et al. (J Natl Cancer Inst. 1990 Jul. 4; 82(13): 1107-12). In the study, MDA-MB-468 cells were seeded on DMEM medium containing 10% fetal bovine serum in a 96-well microplate. After 24-h incubation at 37° C. in the presence of 5% carbon dioxide, the test compound was added and the cells were incubated for another 5 days. After incubation, a trichloroacetic acid solution was added to yield the final concentration of 10% and the cells were left to stand at 4° C. for 1 hour to fix. Then, the cells were washed with water to remove the medium and trichloroacetic acid and dried in the air. The dried cells were stored at 4° C. until they were stained with sulforhodamine B. To each well, 1% acetic acid solution containing 0.4% sulforhodamine B was added and left to stand for 20 to 30 minutes at room temperature. After discarding the supernatant, each well was washed with 1% acetic acid solution, and 10 mM Tris([…]) solution was added while stirring to elute the dye taken into the cells. Then, the optical density was determined at the measurement wavelength of 492 nm and the reference wavelength of 690 nm, and the difference was calculated. The cell growth activity in each well was defined as the value determined by subtracting the OD in the control well not containing cells (the difference in absorbance between 492 nm and 690 nm) from that in the test well.
(§1) The 50% inhibitory concentration (IC50 (nM)) of the test compound was determined by comparing the cell growth activity in the well containing the test compound with that of the control not containing the test compound.

The subject of data set [2] is bicalutamide resistant human prostate cancer cell line established from LNCaP.FGC (LNCaP-Bic). Nature of the data set: Growth inhibition of LNCaP-Bic cells, WST-8 assay. The class given is cell-based. As to conditions: 120 h, 5 days with test compound. How it is done:
(§2) The growth inhibition on a bicalutamide resistant human prostate cancer cell line established from LNCaP.FGC (LNCaP-Bic) (Hobisch A, et al. Prostate. 2006; 66(4):413-20.) was determined by a WST-8 assay according to the method of Singh A K, et al. (Cancer Lett. 1996 Oct. 1; 107(1): 109-15.). In this method, LNCaP-Bic cells were seeded in RPMI 1640 medium containing 10% fetal bovine serum in a 96-well microplate and incubated at 37° C. for 24 hours in the presence of 5% carbon dioxide. Then, the test compound was added and the cells were incubated for another 5 days. After incubation, a 15-μL volume of WST-8 (2-(2-methoxy-4-nitrophenyl)-3-(4-nitrophenyl)-5-(2,4-[…])-2H-tetrazolium, monosodium salt) was added. After the incubation for the time, the color reaction was stopped by adding 15 μL of 1% SDS (sodium dodecyl sulfate) solution and the optical density was determined at the measurement wavelength of 450 nm and the reference wavelength of 630 nm, and the difference was calculated. The cell growth activity in each well was defined as the value determined by subtracting the OD in the control well not containing cells (the difference in absorbance between 450 nm and 630 nm) from that in the test well.
as §1

Data set [3] concerns human prostate (adenocarcinoma) cell line (VcaP). Nature of the data set: Growth inhibition of VcaP cells, WST-8 assay. The settings on record: 120 h, 5 days with test compound. The class given is cell-based. The method, then: as §2, §1
The growth inhibition on a human prostate (adenocarcinoma) cell line (VcaP) (Korenchuk S, et al. In Vivo. 2001; 15(2):163-8.) was also determined by the above method.

In data set [4] the test system is human prostate (adenocarcinoma) cell line (PC-3). Nature of the data set: Growth inhibition of PC-3 cells, WST-8 assay. The class given is cell-based. The settings on record: 120 h, 5 days with test compound. How it is done:
as §2, §1
The growth inhibition on a human prostate (adenocarcinoma) cell line (PC-3) (van Bokhoven A, et al. Prostate. 2003; 57(3):205-25.) was also determined by the above method.

In data set [5] the test system is human prostate (carcinoma) cell line (DU 145). The data set can be described thus: Growth inhibition of DU 145 cells, WST-8 assay. The class given is cell-based. The settings on record: 120 h, 5 days with test compound. The method, then: as §2, §1
The growth inhibition on a human prostate (carcinoma) cell line (DU 145) (van Bokhoven A, et al. Prostate. 2003; 57(3):205-25.) was also determined by the above method.

Data set [6] concerns human prostate (carcinoma) cell line (LNCaP.FGC). Nature of the data set: Growth inhibition of LNCaP.FGC cells, WST-8 assay. The format is cell-based. The settings on record: 120 h, 5 days with test compound. How it is done:
as §2, §1
The growth inhibition on a human prostate (carcinoma) cell line (LNCaP.FGC) (van Bokhoven A, et al. Prostate. 2003; 57(3):205-25.) was also determined by the above method.

As to `Cc1ccc(COc2ccc(Oc3c(C)cc(/C=C/C(=O)N4CCCN(Cc5ccc(CCOc6ccc(C(C)C)cc6)cc5)CC4)cc3Cl)nc2)cc1` [Example 123, (E)-3-[3-Chloro-5-methyl-4-({5-[(4-methylbenzyl)oxy]pyridin-2-yl}oxy)phenyl]-1-[4-(4-{2-[4-(propan-2-yl)phenoxy]ethyl}benzyl)-1,4-diazepan-1-yl]prop-2-en-1-one], the IC50 in data set [1] is < 10 nM.
Still for that read-out and setting: under `Cc1cc(/C=C/C(=O)N2CCN(Cc3ccc(CCOc4ccc(C#N)cc4)cc3)CC2)cc(Cl)c1Oc1ccc(OCc2ccc(C(F)(F)F)cc2)cn1` [Example 289, 4-{2-[4-({4-[(E)-3-{3-chloro-5-methyl-4-[(5-{[4-(trifluoromethyl)benzyl]oxy}pyridin-2-yl)oxy]phenyl}prop-2-enoyl]piperazin-1-yl}methyl)phenyl]ethoxy}benzonitrile] stands < 10 nM; under `Cc1ccc(COc2ccc(Oc3c(C)cc(/C=C/C(=O)N4CCN(Cc5ccc(CCOc6ccc(N(C)C)cc6)cc5)CC4)cc3Cl)nc2)cc1` [Example 321, (E)-3-[3-chloro-5-methyl-4-({5-[(4-methylbenzyl)oxy]-pyridin-2-yl}oxy)phenyl]-1-[4-(4-{2-[4-(dimethylamino)phenoxy]ethyl}benzyl)piperazin-1-yl]prop-2-en-1-one], < 10 nM; under `Cc1ccc(COc2ccc(Oc3c(C)cc(/C=C/C(=O)N4CCN(Cc5ccc(C)cc5)CC4)cc3Cl)nc2)cc1` [Example 359, (E)-3-[3-Chloro-5-methyl-4-({5-[(4-methylbenzyl)oxy]pyridin-2-yl}oxy)phenyl]-1-[4-(4-methylbenzyl)piperazin-1-yl]prop-2-en-1-one], < 10 nM.
With `C/C(=C\c1cc(C)c(Oc2ccc(OCc3ccc(C)cc3)cn2)c(Cl)c1)C(=O)N1CCN(Cc2ccc(CCOc3ccc(C)cc3)cc2)CC1.Cl` [Example 411, (E)-3-[3-Chloro-5-methyl-4-({5-[(4-methylbenzyl)oxy]pyridin-2-yl}oxy)phenyl]-2-methyl-1-(4-{4-[2-(4-methylphenoxy)ethyl]benzyl}piperazin-1-yl)prop-2-en-1-one hydrochloride], the melting point fell in the range of 134.7 to 136.4 °C. Besides, the IC50 in data set [1] was < 10 nM.
With `Cc1ccc(OCCc2ccc(CN3CCN(C(=O)/C=C/c4cc(C)c(Oc5ccc(OCc6cccc(F)c6F)cn5)c(Cl)c4)CC3)cc2)cc1` [Example 487, (E)-3-[3-Chloro-4-({5-[(2,3-difluorobenzyl)oxy]pyridin-2-yl}oxy)-5-methylphenyl]-1-(4-{4-[2-(4-methylphenoxy)ethyl]benzyl}piperazin-1-yl)prop-2-en-1-one hydrochloride], the IC50 in data set [1] is < 10 nM.
On the same count and under the same terms, the same measure for `Cc1ccc(COc2ccc(Oc3c(C)cc(/C=C/C(=O)N4CCN(Cc5ccc(CC(C)Oc6ccc(C)cc6)cc5)CC4)cc3Cl)nc2)cc1` (centres unmarked) [Example 534, (E)-3-[3-Chloro-5-methyl-4-({5-[(4-methylbenzyl)oxy]pyridin-2-yl}oxy)phenyl]-1-(4-{4-[2-(4-methylphenoxy)propyl]benzyl}piperazin-1-yl)prop-2-en-1-one hydrochloride]: < 10 nM.
`Cc1cc(/C=C/C(=O)N2CCN(Cc3ccc(CCOc4ccc(C(F)(F)F)cn4)cc3)CC2)cc(Cl)c1Oc1ccc(OCc2ccc(C#N)cc2)cn1.Cl` [Example 613, 4-{[(6-{2-Chloro-6-methyl-4-[(E)-3-oxo-3-{4-[4-(2-{[5-(trifluoromethyl)pyridin-2-yl]oxy}-ethyl)benzyl]piperazin-1-yl}prop-1-en-1-yl]phenoxy}pyridin-3-yl)oxy]methyl}benzonitrile hydrochloride] displayed a melting point of 193.7 to 194.2 °C. In addition, the IC50 in data set [2] was < 10 nM. The IC50 in data set [3] is < 10 nM. In addition, the IC50 in data set [4] was < 10 nM. The IC50 in data set [5] is < 10 nM. Further, the IC50 in data set [6] was < 10 nM.
For `Cc1cc(/C=C/C(=O)N2CCN(Cc3ccc(CCOc4ccc(C(F)(F)F)cc4)cc3F)CC2)cc(C)c1Oc1ccc(OCc2ccc(C#N)cc2)cn1` [Example 616, 4-({[6-(4-{(E)-3-[4-(2-Fluoro-4-{2-[4-(trifluoromethyl)phenoxy]ethyl}benzyl)piperazin-1-yl]-3-oxoprop-1-en-1-yl}-2,6-dimethylphenoxy)pyridin-3-yl]oxy}methyl)benzonitrile hydrochloride], the IC50 in data set [1] is < 10 nM.
Compound `Cc1ccc(OCCCc2ccc(CN3CCN(C(=O)/C=C/c4cc(C)c(Oc5ccc(OCc6ccc(C#N)cc6)cn5)c(Cl)c4)CC3)cc2)cc1.Cl` [Example 621, 4-{[(6-{2-Chloro-6-methyl-4-[(E)-3-(4-{4-[3-(4-methylphenoxy)propyl]benzyl}piperazin-1-yl)-3-oxoprop-1-en-1-yl]phenoxy}pyridin-3-yl)oxy]methyl}benzonitrile hydrochloride] showed a melting point of 193 to 194.8 °C. Also, in data set [2], the IC50 was < 10 nM. Besides, the IC50 in data set [3] is < 10 nM. In addition, in data set [4], the half-maximal inhibitory concentration (IC50) was < 10 nM. Also, the IC50 in data set [5] is < 10 nM. For the same compound, the IC50 in data set [6] is < 10 nM.
On to `Cc1cc(/C=C/C(=O)N2CCN(Cc3ccc(COc4ccc(C(C)C)cc4)cc3)CC2)cc(C)c1Oc1ccc(OCc2cscn2)cn1` [Example 648, (E)-3-(3,5-Dimethyl-4-{[5-(1,3-thiazol-4-ylmethoxy)pyridin-2-yl]oxy}phenyl)-1-[4-(4-{[4-(propan-2-yl)phenoxy]methyl}benzyl)piperazin-1-yl]prop-2-en-1-one hydrochloride], for which the IC50 in data set [1] was < 10 nM.
In turn, `Cc1cc(/C=C/C(=O)N2CCN(Cc3ccc(/C=C/COc4ccc(Br)cn4)cc3)CC2)cc(Cl)c1Oc1ccc(OCc2ccc(C#N)cc2)cn1.Cl` [Example 657, 4-({[6-(4-{(1E)-3-[4-(4-{(1E)-3-[(5-Bromopyridin-2-yl)oxy]prop-1-en-1-yl}benzyl)piperazin-1-yl]-3-oxoprop-1-en-1-yl}-2-chloro-6-methylphenoxy)pyridin-3-yl]oxy}methyl)benzonitrile hydrochloride] had a melting point of 145 to 145.8 °C. For the same compound, the half-inhibitory concentration (IC50) in data set [2] was < 10 nM. For the same compound, the IC50 in data set [3] was < 10 nM. The IC50 in data set [4] was < 10 nM. The IC50 in data set [5] was < 10 nM. Further, in data set [6], the IC50 is < 10 nM.
Take `COc1ccc(NCCc2ccc(CN3CCN(C(=O)/C=C/c4ccc(Oc5ccc(OCc6ccc(C#N)cc6)cn5)c(Cl)c4)CC3)cc2)cc1.Cl.Cl` [Example 669, 4-({[6-(2-Chloro-4-{(E)-3-[4-(4-{2-[(4-methoxyphenyl)amino]ethyl}benzyl)piperazin-1-yl]-3-oxoprop-1-en-1-yl}phenoxy)pyridin-3-yl]oxy}methyl)benzonitrile dihydrochloride]: the melting point fell in the range of 219.5 to 222.3 °C. In addition, the IC50 in data set [2] was < 10 nM. Also, the IC50 in data set [3] is < 10 nM. In data set [4], the IC50 was < 10 nM. In addition, the 50% inhibitory concentration (IC50) in data set [5] is < 10 nM. Besides, in data set [6], the half-inhibitory concentration (IC50) is < 10 nM.
`COc1ccc(COc2ccc(Oc3c(C)cc(/C=C/C(=O)N4CCN(Cc5ccc(CC(C)Oc6ccc(F)cc6)cc5)CC4)cc3C)nc2)cc1` (centres unmarked) [Example 725, (E)-1-(4-{4-[2-(4-Fluorophenoxy)propyl]benzyl}piperazin-1-yl)-3-[4-({5-[(4-methoxybenzyl)-oxy]pyridin-2-yl}oxy)-3,5-dimethylphenyl]prop-2-en-1-one hydrobromide]: the IC50 in data set [1] is < 10 nM.
